Measurements reported in US20200048237A1, “A Free Base Oxazine Derivative in Crystalline Form” (NOVARTIS AG, priority 2017, published 2020).

How the values were obtained:
[1] = Chemical stability of crystalline Form A exposed to high temperature and/or humidity (UPLC purity, XRPD solid form); format: physicochemical
Experimental: The stability of crystalline Form A was tested by exposing the crystalline material to high temperature and/or humidity for at least three weeks. After storage at high temperature and/or humidity, bulk crystalline material was sampled and dissolved in acetonitrile:water (80:20) and the purity analysed in a Waters Aquity UPLC using the following conditions: […]

[2] = Drug-drug interaction study in healthy volunteers: plasma PK of Compound 1 alone and with strong CYP3A4 inducer rifampicin; format: in vivo, human; details: with rifampicin 600 mg q.d. vs Compound 1 alone
[3] = Drug-drug interaction study in healthy volunteers: plasma PK of Compound 1 alone and with strong CYP3A4 inhibitor itraconazole; format: in vivo, human; details: with itraconazole 200 mg q.d. vs Compound 1 alone

C[C@@]1(c2nc(NC(=O)c3ncc(C(F)(F)F)cc3Cl)ccc2F)CO[C@@](C)(C(F)(F)F)C(N)=N1 [Form B, N-(6-((3R,6R)-5-amino-3,6-dimethyl-6-(trifluoromethyl)-3,6-dihydro-2H-1,4-oxazin-3-yl)-5-fluoropyridin-2-yl)-3-chloro-5-(trifluoromethyl)picolinamide]
Solid form stability by XRPD analysis ([1]; same conditions as Table 12 (high temperature and/or humidity)): conversion into Form A occurred

C[C@@]1(c2nc(NC(=O)c3ncc(C(F)(F)F)cc3Cl)ccc2F)CO[C@@](C)(C(F)(F)F)C(N)=N1 [Form A, N-(6-((3R,6R)-5-amino-3,6-dimethyl-6-(trifluoromethyl)-3,6-dihydro-2H-1,4-oxazin-3-yl)-5-fluoropyridin-2-yl)-3-chloro-5-(trifluoromethyl)picolinamide]
Solid State Form ([1]; RT, exposure time 0): Crystalline | Thermodynamic stability among polymorphs ([1]; compared with Form B, hydrate Form HA and amorphous form): most thermodynamically stable polymorph

C[C@@]1(c2nc(NC(=O)c3ncc(C(F)(F)F)cc3Cl)ccc2F)CO[C@@](C)(C(F)(F)F)C(N)=N1 [Compound 1, N-(6-((3R,6R)-5-amino-3,6-dimethyl-6-(trifluoromethyl)-3,6-dihydro-2H-1,4-oxazin-3-yl)-5-fluoropyridin-2-yl)-3-chloro-5-(trifluoromethyl)picolinamide]
Decrease of mean AUC of Compound 1 [2]: 5-6 fold | Decrease of mean Cmax of Compound 1 [2]: 2.5 fold | Increase of mean AUC of Compound 1 [3]: 2-3 fold | Increase of mean Cmax of Compound 1 [3]: 25%
